Data published in the kinase profiling compilation of Christmann-Franck et al. (2016).

Tests used:
Test in all cases: radiometric filter-binding kinase assay
[1] = test system: AKT2 (human), P31751 [S474D]
AURKA (human) = AURKA (human) (UniProt O14965)
AURKB (human) = AURKB (human) (UniProt Q96GD4)
CHEK1 (human) = CHEK1 (human) (UniProt O14757)
CSNK1D (human) = CSNK1D (human) (UniProt P48730)
EEF2K (human) = EEF2K (human) (UniProt O00418)
EPHB1 (human) = EPHB1 (human) (UniProt P54762)
EPHB4 (human) = EPHB4 (human) (UniProt P54760)
FGFR1 (human) = FGFR1 (human) (UniProt P11362)
FLT1 (human) = FLT1 (human) (UniProt P17948)
Chain of FLT1 (human) (P17948 whole entry, looked up): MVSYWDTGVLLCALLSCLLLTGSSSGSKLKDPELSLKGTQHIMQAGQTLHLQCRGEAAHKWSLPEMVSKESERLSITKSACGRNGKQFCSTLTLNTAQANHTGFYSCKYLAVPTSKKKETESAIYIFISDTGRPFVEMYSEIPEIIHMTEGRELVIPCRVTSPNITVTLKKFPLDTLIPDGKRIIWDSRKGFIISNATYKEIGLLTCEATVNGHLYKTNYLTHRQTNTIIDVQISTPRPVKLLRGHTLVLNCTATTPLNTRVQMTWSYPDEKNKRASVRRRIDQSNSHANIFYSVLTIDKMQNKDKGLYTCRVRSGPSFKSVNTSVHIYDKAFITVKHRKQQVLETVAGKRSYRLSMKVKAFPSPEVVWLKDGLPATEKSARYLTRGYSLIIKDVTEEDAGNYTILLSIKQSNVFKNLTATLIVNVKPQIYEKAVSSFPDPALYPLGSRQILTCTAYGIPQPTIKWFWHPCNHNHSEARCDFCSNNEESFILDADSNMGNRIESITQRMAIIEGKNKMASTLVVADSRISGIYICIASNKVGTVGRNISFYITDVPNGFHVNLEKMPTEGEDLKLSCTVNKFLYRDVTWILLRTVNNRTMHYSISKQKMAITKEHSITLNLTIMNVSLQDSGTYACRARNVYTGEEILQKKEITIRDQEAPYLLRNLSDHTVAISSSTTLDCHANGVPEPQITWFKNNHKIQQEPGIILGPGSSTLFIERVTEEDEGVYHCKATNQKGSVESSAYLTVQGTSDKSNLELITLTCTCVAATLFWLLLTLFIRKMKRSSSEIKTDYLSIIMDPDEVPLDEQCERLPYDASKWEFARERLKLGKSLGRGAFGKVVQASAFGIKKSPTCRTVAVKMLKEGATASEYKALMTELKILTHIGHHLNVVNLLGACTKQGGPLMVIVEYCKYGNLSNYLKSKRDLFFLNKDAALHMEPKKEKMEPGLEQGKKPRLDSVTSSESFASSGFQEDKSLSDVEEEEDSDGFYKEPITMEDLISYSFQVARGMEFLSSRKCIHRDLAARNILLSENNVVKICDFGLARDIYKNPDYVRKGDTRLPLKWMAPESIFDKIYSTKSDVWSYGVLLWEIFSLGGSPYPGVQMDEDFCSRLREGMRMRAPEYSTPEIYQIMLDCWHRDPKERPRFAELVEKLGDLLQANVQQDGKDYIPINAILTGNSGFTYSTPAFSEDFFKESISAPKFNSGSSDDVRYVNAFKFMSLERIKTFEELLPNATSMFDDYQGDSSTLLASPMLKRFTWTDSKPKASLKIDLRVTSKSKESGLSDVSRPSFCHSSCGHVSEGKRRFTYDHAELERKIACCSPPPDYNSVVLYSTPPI

GCK (human) = GCK (human) (UniProt Q12851)
Chain of GCK (human) (Q12851 whole entry, looked up): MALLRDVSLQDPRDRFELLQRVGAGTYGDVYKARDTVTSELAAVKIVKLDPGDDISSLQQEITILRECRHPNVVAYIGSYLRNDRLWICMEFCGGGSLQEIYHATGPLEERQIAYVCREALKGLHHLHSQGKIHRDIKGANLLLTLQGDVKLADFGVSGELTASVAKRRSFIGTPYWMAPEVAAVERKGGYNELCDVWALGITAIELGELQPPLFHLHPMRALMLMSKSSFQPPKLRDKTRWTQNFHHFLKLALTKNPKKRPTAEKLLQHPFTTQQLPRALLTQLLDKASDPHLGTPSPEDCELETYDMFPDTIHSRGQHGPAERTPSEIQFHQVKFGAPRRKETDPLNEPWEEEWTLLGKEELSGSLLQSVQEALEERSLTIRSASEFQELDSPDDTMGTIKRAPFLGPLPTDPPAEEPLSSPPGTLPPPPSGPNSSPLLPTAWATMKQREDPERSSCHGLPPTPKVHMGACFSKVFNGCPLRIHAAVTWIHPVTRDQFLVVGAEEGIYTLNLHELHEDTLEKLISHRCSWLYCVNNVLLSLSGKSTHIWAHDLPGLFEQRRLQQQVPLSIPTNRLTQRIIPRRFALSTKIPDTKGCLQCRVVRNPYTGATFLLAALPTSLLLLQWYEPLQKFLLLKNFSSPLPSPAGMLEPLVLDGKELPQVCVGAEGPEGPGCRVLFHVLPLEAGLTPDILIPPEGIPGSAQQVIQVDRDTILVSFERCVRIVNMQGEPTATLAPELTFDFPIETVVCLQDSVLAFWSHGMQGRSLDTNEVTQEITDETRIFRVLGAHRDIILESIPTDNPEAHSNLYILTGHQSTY

GSK3B (human) = GSK3B (human) (UniProt P49841)
HIPK1 (human) = HIPK1 (human) (UniProt Q86Z02)
HIPK2 (human) = HIPK2 (human) (UniProt Q9H2X6)
IGF1R (human) = IGF1R (human) (UniProt P08069)
MAP2K2 (human) = MAP2K2 (human) (UniProt P36507)
MAP3K1 (human) = MAP3K1 (human) (UniProt Q13233)
MAP3K5 (human) = MAP3K5 (human) (UniProt Q99683)
MAP3K9 (human) = MAP3K9 (human) (UniProt P80192)
MAPK1 (human) = MAPK1 (human) (UniProt P28482)
MAPK10 (human) = MAPK10 (human) (UniProt P53779)
MAPK13 (human) = MAPK13 (human) (UniProt O15264)
MAPK9 (human) = MAPK9 (human) (UniProt P45984)
Chain of MAPK9 (human) (P45984 whole entry, looked up): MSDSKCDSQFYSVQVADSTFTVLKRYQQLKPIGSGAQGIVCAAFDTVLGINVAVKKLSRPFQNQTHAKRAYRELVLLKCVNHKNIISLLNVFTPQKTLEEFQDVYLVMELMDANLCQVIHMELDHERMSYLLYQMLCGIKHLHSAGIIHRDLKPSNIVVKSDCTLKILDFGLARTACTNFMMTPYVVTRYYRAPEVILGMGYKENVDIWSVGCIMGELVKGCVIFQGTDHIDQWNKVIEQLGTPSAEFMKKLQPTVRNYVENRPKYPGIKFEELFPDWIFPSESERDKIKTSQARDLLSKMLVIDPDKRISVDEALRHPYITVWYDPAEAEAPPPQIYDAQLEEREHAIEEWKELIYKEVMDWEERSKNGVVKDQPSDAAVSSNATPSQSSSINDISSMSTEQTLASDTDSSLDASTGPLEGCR

MARK4 (human) = MARK4 (human) (UniProt Q96L34)
MELK (human) = MELK (human) (UniProt Q14680)
MYLK (human) = MYLK (human) (UniProt Q15746)
[2] = test system: PAK2 (human), Q13177 [T402E]
PAK6 (human) = PAK6 (human) (UniProt Q9NQU5)
PKN2 (human) = PKN2 (human) (UniProt Q16513)
Chain of PKN2 (human) (Q16513 whole entry, looked up): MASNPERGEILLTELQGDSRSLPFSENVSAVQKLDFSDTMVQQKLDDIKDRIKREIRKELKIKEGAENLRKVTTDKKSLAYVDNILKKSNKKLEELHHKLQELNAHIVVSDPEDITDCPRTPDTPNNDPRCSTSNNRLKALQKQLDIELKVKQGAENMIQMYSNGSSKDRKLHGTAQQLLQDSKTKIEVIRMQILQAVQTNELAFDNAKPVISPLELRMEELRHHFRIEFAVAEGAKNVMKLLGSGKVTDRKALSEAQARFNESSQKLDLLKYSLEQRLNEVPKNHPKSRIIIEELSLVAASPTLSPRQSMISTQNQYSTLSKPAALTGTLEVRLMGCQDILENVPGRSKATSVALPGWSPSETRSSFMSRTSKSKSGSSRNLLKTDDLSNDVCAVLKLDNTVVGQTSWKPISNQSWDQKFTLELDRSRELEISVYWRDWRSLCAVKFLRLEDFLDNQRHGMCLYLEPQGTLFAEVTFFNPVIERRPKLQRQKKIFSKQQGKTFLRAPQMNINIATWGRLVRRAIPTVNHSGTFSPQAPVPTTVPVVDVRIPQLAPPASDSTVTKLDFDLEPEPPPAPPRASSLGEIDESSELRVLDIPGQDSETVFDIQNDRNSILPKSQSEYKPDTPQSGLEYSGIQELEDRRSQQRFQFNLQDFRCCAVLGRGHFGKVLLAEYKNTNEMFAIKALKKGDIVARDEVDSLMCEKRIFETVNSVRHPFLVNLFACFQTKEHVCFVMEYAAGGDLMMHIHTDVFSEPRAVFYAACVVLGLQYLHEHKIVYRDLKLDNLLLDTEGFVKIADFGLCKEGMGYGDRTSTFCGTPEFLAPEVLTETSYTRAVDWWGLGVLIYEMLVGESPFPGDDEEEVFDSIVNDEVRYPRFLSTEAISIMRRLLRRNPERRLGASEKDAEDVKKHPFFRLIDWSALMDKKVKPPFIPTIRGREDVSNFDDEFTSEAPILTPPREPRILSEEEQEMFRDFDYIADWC

PRKCZ (human) = PRKCZ (human) (UniProt Q05513)
SRC (human) = SRC (human) (UniProt P12931)
Chain of SRC (human) (P12931 whole entry, looked up): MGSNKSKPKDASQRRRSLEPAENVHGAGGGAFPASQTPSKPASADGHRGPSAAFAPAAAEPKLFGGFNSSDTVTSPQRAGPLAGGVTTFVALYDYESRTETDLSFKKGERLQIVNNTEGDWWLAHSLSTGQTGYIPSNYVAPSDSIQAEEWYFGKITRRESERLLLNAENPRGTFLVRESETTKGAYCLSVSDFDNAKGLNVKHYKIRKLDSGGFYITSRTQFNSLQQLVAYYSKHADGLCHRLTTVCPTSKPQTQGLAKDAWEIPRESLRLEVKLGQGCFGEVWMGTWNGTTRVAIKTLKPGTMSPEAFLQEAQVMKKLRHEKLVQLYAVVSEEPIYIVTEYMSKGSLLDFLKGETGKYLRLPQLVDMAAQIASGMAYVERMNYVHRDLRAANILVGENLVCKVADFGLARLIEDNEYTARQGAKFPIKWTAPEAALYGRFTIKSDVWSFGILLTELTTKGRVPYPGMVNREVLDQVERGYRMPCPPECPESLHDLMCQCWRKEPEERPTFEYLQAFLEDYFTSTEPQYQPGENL

[3] = target: STK11 CAB39 STRADA (human) (UniProt Q9Y376+Q7RTN6+Q15831)
SYK (human) = SYK (human) (UniProt P43405)
TAOK1 (human) = TAOK1 (human) (UniProt Q7L7X3)
TTK (human) = TTK (human) (UniProt P33981)
YES1 (human) = YES1 (human) (UniProt P07947)

Chain of CHEK1 (human) (O14757 whole entry, looked up): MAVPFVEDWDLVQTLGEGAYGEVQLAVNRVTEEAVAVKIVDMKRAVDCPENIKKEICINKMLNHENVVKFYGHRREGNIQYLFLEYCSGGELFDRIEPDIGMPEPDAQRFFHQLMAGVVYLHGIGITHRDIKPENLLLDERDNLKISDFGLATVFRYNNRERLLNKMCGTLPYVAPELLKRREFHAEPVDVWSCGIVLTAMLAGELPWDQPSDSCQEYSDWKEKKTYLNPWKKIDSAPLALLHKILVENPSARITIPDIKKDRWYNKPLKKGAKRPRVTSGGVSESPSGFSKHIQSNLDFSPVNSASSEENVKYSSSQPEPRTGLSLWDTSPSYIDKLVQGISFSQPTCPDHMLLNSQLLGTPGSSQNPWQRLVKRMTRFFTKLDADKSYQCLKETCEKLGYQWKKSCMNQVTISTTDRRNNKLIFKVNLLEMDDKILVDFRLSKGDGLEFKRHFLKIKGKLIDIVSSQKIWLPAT
Chain of AURKB (human) (Q96GD4 whole entry, looked up): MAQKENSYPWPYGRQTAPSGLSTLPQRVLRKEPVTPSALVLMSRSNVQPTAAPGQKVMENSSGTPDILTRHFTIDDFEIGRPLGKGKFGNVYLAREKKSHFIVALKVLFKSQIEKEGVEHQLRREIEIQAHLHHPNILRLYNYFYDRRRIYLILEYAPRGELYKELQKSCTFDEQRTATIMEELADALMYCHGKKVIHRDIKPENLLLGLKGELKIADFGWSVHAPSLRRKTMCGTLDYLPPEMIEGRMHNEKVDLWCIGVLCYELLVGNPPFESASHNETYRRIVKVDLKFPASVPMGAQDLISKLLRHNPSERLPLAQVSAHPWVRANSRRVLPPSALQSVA

Work on `O=c1c(O)c(-c2ccc(O)c(O)c2)oc2cc(O)c(O)c(O)c12` yielded a residual activity ([1]; compound 1.0 µM) of 21%, a residual activity ([1]; compound 10.0 µM) of 1% and a residual activity (AURKA (human); compound 1.0 µM) of 95%. For the same compound, the residual activity (AURKA (human); compound 10.0 µM) was 28%, the residual activity (AURKB (human); compound 1.0 µM) was 62% and the residual activity (AURKB (human); compound 10.0 µM) was 8%. It also gave a residual activity (CHEK1 (human); compound 1.0 µM) of 92%, a residual activity (CHEK1 (human); compound 10.0 µM) of 32% and a residual activity (CSNK1D (human); compound 1.0 µM) of 90%. The residual activity (CSNK1D (human); compound 10.0 µM) was 29%, the residual activity (EEF2K (human); compound 1.0 µM) was 110% and the residual activity (EEF2K (human); compound 10.0 µM) was 109%. The residual activity (EPHB1 (human); compound 1.0 µM) was 85%, the residual activity (EPHB4 (human); compound 1.0 µM) was 90% and the residual activity (EPHB4 (human); compound 10.0 µM) was 56%. For the same compound, the residual activity (FGFR1 (human); compound 1.0 µM) was 27%, the residual activity (FGFR1 (human); compound 10.0 µM) was 14% and the residual activity (FLT1 (human); compound 1.0 µM) was 27%. The residual activity (FLT1 (human); compound 10.0 µM) was 7%, the residual activity (GCK (human); compound 1.0 µM) was 93% and the residual activity (GCK (human); compound 10.0 µM) was 23%. For the same compound, the residual activity (GSK3B (human); compound 1.0 µM) was 94%, the residual activity (GSK3B (human); compound 10.0 µM) was 19% and the residual activity (HIPK1 (human); compound 1.0 µM) was 93%. For the same compound, the residual activity (HIPK1 (human); compound 10.0 µM) was 11%, the residual activity (HIPK2 (human); compound 1.0 µM) was 62% and the residual activity (HIPK2 (human); compound 10.0 µM) was 19%. It also gave a residual activity (IGF1R (human); compound 1.0 µM) of 96%, a residual activity (IGF1R (human); compound 10.0 µM) of 43% and a residual activity (MAP2K2 (human); compound 1.0 µM) of 94%. For the same compound, the residual activity (MAP3K1 (human); compound 1.0 µM) was 67%, the residual activity (MAP3K1 (human); compound 10.0 µM) was 74% and the residual activity (MAP3K5 (human); compound 1.0 µM) was 118%. The residual activity (MAP3K9 (human); compound 1.0 µM) was 100%, the residual activity (MAP3K9 (human); compound 10.0 µM) was 24% and the residual activity (MAPK1 (human); compound 1.0 µM) was 107%. The residual activity (MAPK1 (human); compound 10.0 µM) was 105%, the residual activity (MAPK10 (human); compound 1.0 µM) was 107% and the residual activity (MAPK10 (human); compound 10.0 µM) was 89%. For the same compound, the residual activity (MAPK13 (human); compound 1.0 µM) was 96%, the residual activity (MAPK13 (human); compound 10.0 µM) was 97% and the residual activity (MAPK9 (human); compound 1.0 µM) was 106%. For the same compound, the residual activity (MAPK9 (human); compound 10.0 µM) was 100%, the residual activity (MARK4 (human); compound 1.0 µM) was 34% and the residual activity (MARK4 (human); compound 10.0 µM) was 20%. For the same compound, the residual activity (MELK (human); compound 1.0 µM) was 53%, the residual activity (MELK (human); compound 10.0 µM) was 9% and the residual activity (MYLK (human); compound 1.0 µM) was 87%. It also gave a residual activity (MYLK (human); compound 10.0 µM) of 23%, a residual activity ([2]; compound 1.0 µM) of 96% and a residual activity ([2]; compound 10.0 µM) of 98%. The residual activity (PAK6 (human); compound 1.0 µM) was 58%, the residual activity (PAK6 (human); compound 10.0 µM) was 60% and the residual activity (PKN2 (human); compound 1.0 µM) was 106%. The residual activity (PKN2 (human); compound 10.0 µM) was 102%, the residual activity (PRKCZ (human); compound 1.0 µM) was 62% and the residual activity (PRKCZ (human); compound 10.0 µM) was 20%. The residual activity (SRC (human); compound 1.0 µM) was 38%, the residual activity (SRC (human); compound 10.0 µM) was 25% and the residual activity ([3]; compound 1.0 µM) was 95%. For the same compound, the residual activity ([3]; compound 10.0 µM) was 55%, the residual activity (SYK (human); compound 1.0 µM) was 89% and the residual activity (SYK (human); compound 10.0 µM) was 93%. It also gave a residual activity (TAOK1 (human); compound 1.0 µM) of 94%, a residual activity (TTK (human); compound 1.0 µM) of 75% and a residual activity (TTK (human); compound 10.0 µM) of 36%. For the same compound, the residual activity (YES1 (human); compound 1.0 µM) was 42% and the residual activity (YES1 (human); compound 10.0 µM) was 9%.

Compound `Oc1ccc(/C=C/c2cc(O)cc(O)c2)cc1` has a residual activity ([1]; compound 1.0 µM) of 108%, a residual activity ([1]; compound 10.0 µM) of 67% and a residual activity ([1]; compound 50.0 µM) of 76%. The residual activity (AURKA (human); compound 10.0 µM) was 100%, the residual activity (AURKB (human); compound 1.0 µM) was 97% and the residual activity (AURKB (human); compound 10.0 µM) was 62%. It also gave a residual activity (AURKB (human); compound 50.0 µM) of 22%, a residual activity (CHEK1 (human); compound 1.0 µM) of 95% and a residual activity (CHEK1 (human); compound 10.0 µM) of 79%. It also gave a residual activity (CHEK1 (human); compound 50.0 µM) of 29%, a residual activity (CSNK1D (human); compound 1.0 µM) of 84% and a residual activity (CSNK1D (human); compound 10.0 µM) of 94%. It also gave a residual activity (CSNK1D (human); compound 50.0 µM) of 46%, a residual activity (EEF2K (human); compound 1.0 µM) of 95% and a residual activity (EEF2K (human); compound 10.0 µM) of 69%. It also gave a residual activity (EEF2K (human); compound 50.0 µM) of 87%, a residual activity (EPHB1 (human); compound 10.0 µM) of 97% and a residual activity (EPHB4 (human); compound 10.0 µM) of 99%. It also gave a residual activity (FGFR1 (human); compound 10.0 µM) of 85%, a residual activity (FLT1 (human); compound 10.0 µM) of 51% and a residual activity (GCK (human); compound 10.0 µM) of 73%. The residual activity (GSK3B (human); compound 1.0 µM) was 100%, the residual activity (GSK3B (human); compound 10.0 µM) was 80% and the residual activity (GSK3B (human); compound 50.0 µM) was 37%. For the same compound, the residual activity (HIPK1 (human); compound 10.0 µM) was 48%, the residual activity (HIPK2 (human); compound 1.0 µM) was 60% and the residual activity (HIPK2 (human); compound 10.0 µM) was 30%. The residual activity (HIPK2 (human); compound 50.0 µM) was 3%, the residual activity (IGF1R (human); compound 10.0 µM) was 59% and the residual activity (MAP2K2 (human); compound 10.0 µM) was 91%. It also gave a residual activity (MAP3K1 (human); compound 10.0 µM) of 90%, a residual activity (MAP3K5 (human); compound 10.0 µM) of 77% and a residual activity (MAP3K9 (human); compound 10.0 µM) of 44%. It also gave a residual activity (MAPK1 (human); compound 1.0 µM) of 102%, a residual activity (MAPK1 (human); compound 10.0 µM) of 79% and a residual activity (MAPK1 (human); compound 50.0 µM) of 100%. It also gave a residual activity (MAPK10 (human); compound 1.0 µM) of 80%, a residual activity (MAPK10 (human); compound 10.0 µM) of 87% and a residual activity (MAPK10 (human); compound 50.0 µM) of 114%. It also gave a residual activity (MAPK13 (human); compound 1.0 µM) of 95%, a residual activity (MAPK13 (human); compound 10.0 µM) of 91% and a residual activity (MAPK13 (human); compound 50.0 µM) of 72%. For the same compound, the residual activity (MAPK9 (human); compound 1.0 µM) was 95%, the residual activity (MAPK9 (human); compound 10.0 µM) was 86% and the residual activity (MAPK9 (human); compound 50.0 µM) was 103%. It also gave a residual activity (MARK4 (human); compound 10.0 µM) of 99%, a residual activity (MELK (human); compound 1.0 µM) of 49% and a residual activity (MELK (human); compound 10.0 µM) of 50%. It also gave a residual activity (MELK (human); compound 50.0 µM) of 8%, a residual activity (MYLK (human); compound 1.0 µM) of 78% and a residual activity (MYLK (human); compound 10.0 µM) of 63%. For the same compound, the residual activity (MYLK (human); compound 50.0 µM) was 15%, the residual activity ([2]; compound 10.0 µM) was 83% and the residual activity (PAK6 (human); compound 1.0 µM) was 108%. The residual activity (PAK6 (human); compound 10.0 µM) was 106%, the residual activity (PAK6 (human); compound 50.0 µM) was 100% and the residual activity (PKN2 (human); compound 1.0 µM) was 95%. For the same compound, the residual activity (PKN2 (human); compound 10.0 µM) was 70%, the residual activity (PKN2 (human); compound 50.0 µM) was 21% and the residual activity (PRKCZ (human); compound 1.0 µM) was 128%. The residual activity (PRKCZ (human); compound 10.0 µM) was 105%, the residual activity (PRKCZ (human); compound 50.0 µM) was 99% and the residual activity (SRC (human); compound 1.0 µM) was 108%. It also gave a residual activity (SRC (human); compound 10.0 µM) of 81%, a residual activity (SRC (human); compound 50.0 µM) of 47% and a residual activity ([3]; compound 10.0 µM) of 69%. It also gave a residual activity (SYK (human); compound 10.0 µM) of 92%, a residual activity (TAOK1 (human); compound 10.0 µM) of 32% and a residual activity (TTK (human); compound 10.0 µM) of 83%. For the same compound, the residual activity (YES1 (human); compound 10.0 µM) was 77%.
